Assay [1] addresses T1, His6-CylA-27-412 (Enterococcus faecalis, UniProt A0A2P6AWB8).
T1 sequence (A0A2P6AWB8 27-412): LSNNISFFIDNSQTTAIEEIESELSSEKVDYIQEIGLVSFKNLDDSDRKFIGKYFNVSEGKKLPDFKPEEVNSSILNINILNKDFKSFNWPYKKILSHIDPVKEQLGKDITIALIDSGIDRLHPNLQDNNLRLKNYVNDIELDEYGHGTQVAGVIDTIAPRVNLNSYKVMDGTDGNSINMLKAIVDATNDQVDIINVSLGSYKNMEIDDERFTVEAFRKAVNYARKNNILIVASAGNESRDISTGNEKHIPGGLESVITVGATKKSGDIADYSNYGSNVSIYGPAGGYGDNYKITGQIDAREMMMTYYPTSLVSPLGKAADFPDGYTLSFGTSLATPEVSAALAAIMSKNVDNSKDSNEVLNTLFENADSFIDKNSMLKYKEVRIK
The assay can be described thus: Analysis of CylA inhibition by LCMS (cleavage of mCylLL and mCylLS). The assay is classed as biochemical. The conditions noted are these: 1 µM inhibitor; enzyme 4 nM; substrate 10 µM; 30 min, room temperature. As to the method: We expressed CylA in Escherichia coli with an N-terminal His6-tag and without the secretion signal that is present in WT CylA. […] (4 nM) gave partial conversion to the mature core peptide after 30 min at room temperature.
A Peak highlighted in green is the LP and peak highlighted in orange is CylLL”. B Peak highlighted in blue is the LP and peak highlighted in violet is CylLS”. Longer incubation times result in near-complete cleavage of the substrates. Source data are provided as a Source Data file.
His6-CylA-27-412 was added to PBS (pH = 7.4) to achieve a total enzyme concentration of 4 nM then 1 was added to a concentration 1 μM. […] Reactions were allowed to stand for 30 min before quenching through adjustment to 1% formic acid. Reactions were analyzed directly by LCMS using a Jupiter 5 µm C4 300 Å, 50 × 2 mm LC column. The following gradient was used: 98% H2O + 0.1% FA (solvent A)/2% MeCN + 0.1% FA (solvent B) for 2 min then 98:2 to 2:98 solvent A:solvent B over 10 min. Extracted ion chromatograms (EIC) for each species were merged into a single trace. […] CylA was also previously reported to prefer the modified peptides over the linear peptides.

The target in assay [2] is T1, His6-CylA-27-412. The experiment in a line: Co-operative pore formation assay (pyranine liposomes) measuring CylA-catalyzed cytolysin maturation. The assay is classed as biochemical. The text has this: Cytolysin causes hemolysis and lyses a variety of eukaryotic cells[36],[37]. Additionally, CylA aggregates and is thought to associate primarily with the membrane of the producing cell[52],[53]. To mimic the maturation of cytolysin in vitro, an enzyme assay was designed that linked toxin production to the lysis of fluorescently labeled liposomes. […] In this way, pyranine fluorescence was correlated to toxin activation allowing for the determination of EC50 values (Fig. 4B, C).
Fig. 4 In vitro pore formation assay for determining inhibitor effectiveness. A A schematic of the assay showing how pore formation is used as an indicator of toxin maturation. […] Pore formation dissipates a pH gradient between the interior of the liposome and the surrounding buffer increasing pyranine fluorescence. […] The data points from two replicates are shown (n = 2). Source data are provided as a Source Data file.
Pyranine encapsulated liposomes were prepared as described elsewhere. […] To a well in a black 96-well plate (200 µL) was added 90 µL high pH buffer (5 mM MES, 5 mM Tricine, 5 mM NaCl, pH 7.4) containing CylA (4 nM final concentration). After adding inhibitor, the mixture was incubated at room temperature for 10 min then freshly prepared (no more than 2 days old) pyranine encapsulated DOPC liposomes were added such that the total DOPC concentration was 80 µM. […] The resulting curves were max-min normalized yielding the fraction of permeabilized liposomes. […] This experiment was performed in duplicate or triplicate for each inhibitor at each concentration.
Supplementary Figure 3. Measuring CylA-cat alyzed cytolysin maturation using a pyranine pore formation assay. Plots on the left side show the normalized pyranine emission intensity monitored […]
was added 30 min later. Each trace w as collected using a differ ent total co ncentration of inhibitor as indicated in the l egend. Traces are from a single representative tri al. On the right side, the fraction of liposomes permeabilized after 30 min was plotted as a function of total inhibitor concentration. The data were fit to a dose-response function using Origin 7 and the fit curve is depicted by the red line. Errors bars represent the standard of deviation bet ween two replicates (n = 2). Source d ata are pro vided as a Source Data file. […]

In assay [3] the test system is HeLa cells. Format: cell-based. As to the method: Cell culturing and maintenance was performed in Dulbecco’s Modified Eagle Medium (DMEM, Gibco) supplemented with 10% heat inactivated fetal bovine serum (FBS, Gibco). Cells were routinely checked for mycoplasm using mycoplasm specific primers. HeLa cells (ATCC) were seeded in 96 well plates (Nunc) using a seeding density of 5000 cells/well and allowed to adhere for 16 h at 37 °C, 5% CO2. […] Post-treatment, plates were incubated for 72 h at 37 °C, 5% CO2. Subsequently, the growth medium was removed, and the cells were washed once with pre-warmed phosphate buffered saline (PBS; pH = 7.2). Next, 50 µL of DMEM-FBS media containing 1 mg/mL of 3-(4,5-dimethylthiazol-2-yl)-2,5-diphenyltetrazolium bromide (MTT) was added to the cells and the cells were incubated in the dark at 37 °C, 5% CO2 for 4 h. During this time, live cells reduced yellow tetrazolium salts to purple formazan crystals through NAD(P)H-dependent oxidoreductase activity. After 4 h, the medium was removed carefully and the insoluble formazan crystals were solubilized by incubating with 100 µL of dimethyl sulfoxide (DMSO) in the dark for 1 h with intermittent swirling. Finally, absorbance was recorded at 575 nm (Supplementary Fig. 18). The percentage of cells that survived over the course of the assay was calculated using Eq. 1.1 %survival=100%−Absorbanceoftreatedwell−AvgAbsorbanceofnegativecontrolwells/AvgAbsorbanceofpositivecontrol−AvgAbsorbanceofnegativecontrol*100% […]
Supplementary Figure 18.Cytotoxicity assay of boronic acid inhibitors 2 , 3, 5- 9 against HeLa […]
µM or less as determined by an MTT-based assay. Puromycin was used as positive control, while deionized sterile w ater w as used as a n egative con trol. Source data are prov ided as a Source Dat a […]

This is an account of results in publication PMC12304293, “Combatting virulent gut bacteria by inhibiting the biosynthesis of a two-component lanthipeptide toxin” (Nature Communications, 2025).

Where two headings read alike, the source gives them in different places. Non-standard residues stand in square brackets, D forms with d. Residues, ends and D or L forms follow the SMILES beside them. *: point of attachment. boroGlu = O=C(O)CC[C@H](N*)B(O)O; Abu = CC[C@H](N)C(=O)O

As to `CC(=O)NCC(=O)N[C@@H](CC(=O)O)C(=O)N[C@H](C(=O)N[C@@H](CCC(N)=O)C(=O)N[C@@H](C)C(=O)N[C@@H](CCC(=O)O)B(O)O)C(C)C` [Compound 1] (Ac-GDVQA-boroGlu), the “His6-CylA-27-412-catalyzed cleavage of mCylLS and mCylLL” value in assay [1] was “completely blocked”.
The compound `CC[C@H](NC(=O)[C@H](CCC(N)=O)NC(=O)[C@@H](NC(=O)[C@H](CC(=O)O)NC(=O)CNC(C)=O)C(C)C)C(=O)N[C@@H](CCC(=O)O)B(O)O` [Compound 6] (Ac-GDVQ[Abu]-boroGlu) showed a 50% effective concentration (EC50) in assay [2] of 70 ± 11 nM. In addition, the “increase in EC50 relative to 1” value in assay [2] (pore formation assay) is ~ 2 fold.
Regarding `CC(=O)N[C@@H](CO)C(=O)N[C@@H](CC(=O)O)C(=O)N[C@H](C(=O)N[C@@H](CCC(N)=O)C(=O)N[C@@H](C)C(=O)N[C@@H](CCC(=O)O)B(O)O)C(C)C` [Compound 8] (Ac-SDVQA-boroGlu), the concentration giving a half-maximal response (EC50) in assay [2] was 40 ± 3 nM.
With `COc1ccc(C[C@H](N)C(=O)N[C@H]2[C@@H](O)[C@H](n3cnc4c(N(C)C)ncnc43)O[C@@H]2CO)cc1` [puromycin], the “% survival” value worked out at 5.522% in assay [3] (additive concentration 1.6 (unit not given)); 4.2% in assay [3] (additive concentration 3.1 (unit not given)); 4.093% in assay [3] (additive concentration 6.3 (unit not given)); 3.889% in assay [3] (additive concentration 13 (unit not given)); 3.867% in assay [3] (additive concentration 25 (unit not given)); 3.889% in assay [3] (additive concentration 50 (unit not given)). In addition, in assay [3] (additive concentration 100 (unit not given)), the “% survival” value was determined as 3.867%.

By EC50 is commonly meant the concentration giving half of the maximal effect. The low end stands for an effect from little substance, the high end for a need for much substance.
